Patent publication US20250325563A1, “METHODS FOR TREATING METABOLIC SYNDROME” (priority 2023, published 2025)

How the values were obtained:
[1] = Body weight of mice on daily i.p. administration for 6 days (Example 1); type: in vivo, C57BL/6J mice; settings: for Mean body weight: N=10
Method: Two months old male C57BL/6J mice were housed (4-5 mice per cage) with food and water available ad libidum at a temperature control of 24-26° C. and a 12 h light/dark cycle. 3-4 days before the start of the study, the mice were randomized into 3 experimental groups (N=10 per group) using online randomization tool (Graph Pad, USA). Body weights of each animal were measured once a day during the entire study, their health conditions were assessed at the same time. Elocalcitol (100 μg/kg), vitamin D3 (cholecalciferol,100 μg/kg), or vehicle control were administrated intraperitoneally once a day for 6 days.

[2] = system: HFD-fed mice; assay: Prevention of total body weight gain in high-fat diet mice (Example 2); type: in vivo, C57BL/6J mice
Method: Mice were group-housed (4-5 mice per cage) on a proper temperature control of 24-26° C. with a 12 h light/dark cycle with food and water available ad libidum. […] Body weight was measured once a week and the amount of food and water consumed by the animals was measured once a month.

[3] = system: HFD-fed mice; assay: Visceral and subcutaneous fat volumes by MRI (Example 3); type: in vivo, C57BL/6J mice; settings: 15 μg/kg i.p. twice a week for 16 weeks, n=5
Method: (§1) Mice were group-housed (4-5 mice per cage) on a proper temperature control of 24-26° C. with a 12 h light/dark cycle with food and water available ad libidum.
Abdominal area of animals was scanned for assessing visceral and subcutaneous fat loading by using magnetic resonance imaging system (MRI, Bruker BioSpin Group, Bruker Corporations, Germany) before experiment and then once a month during the experiment. The study procedure was conducted as follows: mice (n=5 per group) were anesthetized using isoflurane (1.5-2.5% in 1.5 l/min medical oxygen) and placed on a heated animal bed throughout the MRI procedure. Scans were performed using a 9.4T Bruker BioSpec 94/21 USR system connected to a 1H circular polarized transceiver coil and running Para Vision 6.0.1® software (Bruker BioSpin Group, Bruker Corporation, Germany). Respiration was monitored using a respiration pillow (SA Instruments Inc., Stony Brook, USA) and respiration rate was maintained at between 35-70 breaths per minute. Two orientation pilot scans were performed in order to establish the position of the animal and identify anatomical landmarks relevant for planning the subsequent scan. The final Tl-weighted Bruker: RARE sequence was performed using the following parameters: repetition time (TR) 1164 ms, echo time (TE) 6 ms, flip angle 90 degrees, number of averages 2, imaging matrix 320×320×40, spatial resolution 0.125×0.125×0.5 mm. Volumes were segmented manually by an observer blinded to the experiment using ITK-SNAP (V3.8.0). A 40× zoom was used to measure visceral and subcutaneous fat volume, and renal onset was the starting point for the fat volume analysis.

[4] = system: HFD-fed mice; type: in vivo, C57BL/6J mice; settings: 15 μg/kg i.p. twice a week for 16 weeks; for Epididymal fat, absolute organ weight / Epididymal fat, normalized organ weight (organ weight/body weight) / Liver, absolute organ weight / Liver, normalized organ weight (organ weight/body weight): mean ± SEM, n=10
Method: as §1

[5] = system: HFD-fed mice; assay: Glucose tolerance test (GTT); type: in vivo, C57BL/6J mice; settings: glucose 2 g/kg i.p.; study week 16; 15 μg/kg i.p. twice a week
Method: as §1
(§2) For GTT, mice were fasted overnight for 10-12 h and blood glucose was measured from the tail blood using Accu-Chek Performa system glucose meter (Roche, Germany) and the baseline glucose values (0 min) were recorded. The animals were then injected intraperitoneally with glucose (2 g/kg) and after glucose injection the blood glucose was measured from tail blood according to this schedule: 15, 30, 60, 90, and 120 min.

[6] = system: HFD-fed mice; assay: Insulin tolerance test (ITT); type: in vivo, C57BL/6J mice; settings: insulin 0,5 U/kg i.p.; study week 16; 15 μg/kg i.p. twice a week
Method: as §1
as §2, with “Insulin tolerance test (ITT) was performed at the end of the study (study week 16). For” for “For”, “ITT,” for “GTT,”, “fasted” for “fasted overnight”, “6” for “10-12”, “insulin (0,5 U/kg; diluted from 100 U/ml (Novorapid, Novo Nordisk A/S) with saline 0.9%)” for “glucose (2 g/kg)”

[7] = system: HFD-fed mice; assay: Blood metabolic markers in serum (Example 5); type: in vivo, C57BL/6J mice; settings: for HDL in serum / LDL in serum / Total cholesterol in serum / Triglycerides in serum: 15 μg/kg i.p. twice a week, study week 16
Method: as §1
The mice were deeply anesthetized with a terminal dosage of phenobarbital (200-300 mg/kg)24 h after the last study treatment administration and the blood samples were collected from all groups of mice via cardiac puncture using a standardized protocol. Collected blood was allowed to coagulate before centrifugation at 2000×g for 20 min after which the serum was stored at −80° C. until the analysis.

[8] = prolonged use; cited from earlier work
[9] = system: NF-κB; settings: Penna et al., 2009; cited from earlier work
[10] = 100 μg/kg i.p. once a day for 6 days
[11] = admin. day 0 (administration start), 100 μg/kg i.p. once a day
[12] = admin. day 1, 100 μg/kg i.p. once a day
[13] = admin. day 2, 100 μg/kg i.p. once a day
[14] = admin. day 3, 100 μg/kg i.p. once a day
[15] = admin. day 4, 100 μg/kg i.p. once a day
[16] = admin. day 5, 100 μg/kg i.p. once a day
[17] = admin. day 6, 100 μg/kg i.p. once a day
[18] = admin. day −1, before administration start, 100 μg/kg group
[19] = admin. day −2, before administration start, 100 μg/kg group
[20] = admin. day −3, before administration start, 100 μg/kg group
[21] = admin. day −4, before administration start, 100 μg/kg group
[22] = day 7, after administration stopped on day 6
[23] = day 7, after administration stopped on day 6, 100 μg/kg i.p.
[24] = day 8, after administration stopped on day 6
[25] = day 8, after administration stopped on day 6, 100 μg/kg i.p.
[26] = 15 μg/kg i.p. twice a week for 16 weeks

C=C1/C(=C\C=C2/CCC[C@]3(C)C([C@@H](C)C/C=C/C(O)(CC)CC)=CC[C@@H]23)C[C@@H](O)C[C@@H]1F [elocalcitol]
Average body weight after administration was stopped on Day 6 [1, 10]: returned to normal within two days
Mean body weight [1, 11]: 21.50 g
Weight change % [1, 12]: +1.4%
Mean body weight [1, 12]: 21.80 g
Weight change % [1, 13]: −1.4%
Mean body weight [1, 13]: 21.20 g
Weight change % [1, 14]: −5.58%
Mean body weight [1, 14]: 20.30 g
Weight change % [1, 15]: −10.7%
Mean body weight [1, 15]: 19.20 g
Weight change % [1, 16]: −14.42%
Mean body weight [1, 16]: 18.40 g
Weight change % [1, 17]: −18.6%
Mean body weight [1, 17]: 17.50 g
Mean body weight [1, 18]: 21.60 g
Mean body weight [1, 19]: 21.70 g
Mean body weight [1, 20]: 21.60 g
Mean body weight [1, 21]: 21.40 g
Drop of average body weight ([1]; by treatment Day 4, 100 μg/kg i.p. once a day): 10.7%
Average decrease in body weight ([1]; by treatment Day 6, 100 μg/kg i.p. once a day): 18.6%
Weight change % [1, 22]: −16.75%
Mean body weight [1, 23]: 17.90 g
Weight change % [1, 24]: −1.07%
Mean body weight [1, 25]: 19.20 g
Study week at which inhibition of the HFD-induced weight gain reaches statistical significance ([2]; 15 μg/kg i.p. twice a week): 7 study week
Lower relative weight gain compared to the vehicle treated HFD mice ([2]; 15 μg/kg i.p. twice a week for 16 weeks, study week 16): 20%
Subcutaneous fat level (MRI) compared to the HFD group [3]: significant decrease
Visceral and subcutaneous fat relative to the LFD mice [3]: reversed the visceral and subcutaneous fat of the HFD mice to the levels observed in the LFD mice
Visceral fat level (MRI) compared to the HFD group [3]: significant decrease
Weights of epididymal fat deposits at the study end, group comparison [4]: significantly lower than those in the HFD and HFD+vitD groups
Epididymal fat, absolute organ weight [4]: 1312 mg
Epididymal fat, normalized organ weight (organ weight/body weight) [4]: 36.29 mg/g
Liver, absolute organ weight [4]: 1412 mg
Liver, normalized organ weight (organ weight/body weight) [4]: 39.45 mg/g
Glucose tolerance of the HFD-fed mice (glucose AUC analysis) [5]: statistically significant improvement
Increased insulin resistance observed in the HFD (insulin tolerance test) [6]: reverses the increased insulin resistance observed in the HFD in a statistically significant manner
Effect on cholesterol (the combined HDL and LDL) [7, 26]: statistically significant cholesterol (the combined HDL and LDL) lowering effect
Effect on triglyceride levels [7, 26]: lowered the triglyceride levels similar to the ones in the LFD group
HDL in serum [7]: 2.99 mmol/L
LDL in serum [7]: 0.73 mmol/L
Total cholesterol in serum [7]: 3.88 mmol/L
Triglycerides in serum [7]: 0.87 mmol/L
Oral dose above which hypercalcemia may ensue [8]: higher than 300 μg per day
NF-κB inhibition [9]: inhibits NF-κB by blocking the nuclear translocation of the p65 subunit

C=C1/C(=C\C=C2/CCC[C@]3(C)[C@@H]([C@H](C)CCCC(C)(C)O)CC[C@@H]23)C[C@@H](O)C[C@@H]1O [1,25 (OH)2D3, 1,25-dihydroxycholecalciferol, reference compound]
Subcutaneous fat level (MRI) compared to the HFD group [3]: no statistically significant effect
Visceral fat level (MRI) compared to the HFD group [3]: no statistically significant effect
Epididymal fat, absolute organ weight [4]: 1874 mg
Epididymal fat, normalized organ weight (organ weight/body weight) [4]: 49.67 mg/g
Liver, absolute organ weight [4]: 1374 mg
Liver, normalized organ weight (organ weight/body weight) [4]: 36.03 mg/g
Effect on triglyceride levels [7, 26]: lowered the triglyceride levels similar to the ones in the LFD group
HDL in serum [7]: 3.57 mmol/L
LDL in serum [7]: 0.82 mmol/L
Total cholesterol in serum [7]: 4.44 mmol/L
Triglycerides in serum [7]: 0.68 mmol/L

C=C1CC[C@H](O)C/C1=C/C=C1\CCC[C@]2(C)[C@@H]([C@H](C)CCCC(C)C)CC[C@@H]12 [Vitamin D3, cholecalciferol, reference compound]
Weight loss observed [1, 10]: No weight loss was observed
Mean body weight [1, 11]: 23.80 g
Weight change % [1, 12]: −0.84%
Mean body weight [1, 12]: 23.60 g
Weight change % [1, 13]: +0.84%
Mean body weight [1, 13]: 24.00 g
Weight change % [1, 14]: 0%
Mean body weight [1, 14]: 23.80 g
Weight change % [1, 15]: +0.84%
Mean body weight [1, 15]: 24.00 g
Weight change % [1, 16]: +1.68%
Mean body weight [1, 16]: 24.20 g
Weight change % [1, 17]: +2.52%
Mean body weight [1, 17]: 24.40 g
Mean body weight [1, 18]: 23.70 g
Mean body weight [1, 19]: 23.50 g
Mean body weight [1, 20]: 23.50 g
Mean body weight [1, 21]: 23.40 g
Weight change % [1, 22]: +2.94%
Mean body weight [1, 23]: 24.50 g
Weight change % [1, 24]: +3.78%
Mean body weight [1, 25]: 24.70 g
